Measured values from patent publication US20260023070A1, “OPTOGENETIC ALPHA-SYNUCLEIN AGGREGATION SYSTEM-BASED COMPOUND SCREENING PLATFORM IN PD-hiPSC-mDA NEURONS” (The Johns Hopkins University, priority 2022, published 2026).

Tests used:
[1] = tested on: opto-α-syn PD hiPSC-derived mDA neurons; experiment: Light-induced α-syn aggregation and neurotoxicity in opto-α-syn PD hiPSC-derived mDA neurons; format: cell-based, human; details: blue light 7 days; compared to DMSO control; significant at 1 and 10 nM CDC, 10 and 100 nM BAG
Procedure: Whether these potential hit compounds can inhibit α-syn aggregation and rescue aggregation-induced neuronal toxicity was tested on PD hiPSC-derived mDA neurons. The top 5 ranked small compounds in FIGURE SE were selected and these compounds to were used to treat opto-α-syn PD hiPSC-derived mDA neurons at three different concentrations (1 nM, 10 nM, 100 nM) with blue light stimulation. […] Overall, the two compounds were finally selected among the potential hit drugs from our novel opto-α-syn neuronal cell model-based primary screening (FIG. 11D), and they considerably rescued neuronal cell death from aggregation-induced TH^+ mDA neuron-selective toxicity in PD-iPSC derived neurons. To identify possible molecules involved in this compound-mediated recovery of TH^+ mDA neurons, RNA-sequencing (RNA-seq) analysis was performed with four different samples (dark condition with DMSO, blue light stimulation with DMSO, blue light stimulation with BAG treatment, and blue light stimulation with CDC treatment). To find BAG- or CDC-responsive genes, differentially expressed genes (DEGs) of DMSO-treated samples upon blue light stimulation were first extracted, and then the DEGs were filtered with criteria of which became non-DEGs in response to CDC or BAG treatment. […]
The effect of 5 selected compounds on opto-α-syn-expressing PD hiPSC-derived mDA neurons was evaluated. […]

[2] = tested on: tau PFF treated mouse cortical neurons; experiment: tau PFF treated mouse cortical neurons, p-Tau western blot; format: cell-based
Procedure: It was tested whether the BAG956 compound can be beneficial in other proteinopathy models. The BAG and CDC compounds were used on the tau PFF treated mouse […] neurons (FIGS. 15A-15D) and measured expression levels with three different phosphorylated-Tau (p-Tau) antibodies.

opto-α-syn-MOs = experiment: Autophagy in opto-α-syn-MOs kept in dark after blue light illumination; format: cell-based, human; details: treatment only during dark condition after blue light illumination for six days
Procedure: Because autophagy can be activated by the inhibition of PI 3-kinase (PI3K) or the PDK1 pathway, it was tested whether treatment with BAG 956 can induce the autophagic flux to decrease α-syn aggregates in opto-α-syn mDA neurons and MOs.

[3] = tested on: PI3K-PDK1/AKT/mTOR signaling pathway; experiment: PI3K/PDK1 downstream target phosphorylation in α-syn PFF-treated mouse primary neurons; format: cell-based
From the text: Since PI3K-PDK1/AKT/mTOR signaling pathway plays a critical role in regulation of autophagy, it was investigated the effects of BAG 956 treatments on PFF models. […] Taken together, BAG 956 may act as an autophagy-enhancing drug through inhibition of the PI3K-PDK1/AKT/mTOR signaling pathway (FIG. 18I).

[4] = tested on: mouse primary neurons treated with α-syn PFF; experiment: α-syn PFF model in mouse primary neurons (TX-insoluble pathologic α-syn); format: cell-based
Procedure: To validate the effects of these two compounds on the OASIS-independent model, α-syn PFF were treated with mouse primary neurons and non-OASIS-human PD hiPSC-derived mDA neurons with CDC 021 and BAG 956.

α-syn PFF injected mice = experiment: In vivo intrastriatal α-syn PFF mouse model, oral BAG 956 (behaviour, histology, biochemistry); details: short-term: two months at 2 mg/kg or one month at 10 mg/kg after intrastriatal α-syn PFF injection

Cc1nc2cnc3ccc(C#Cc4cccnc4)cc3c2n1-c1ccc(C(C)(C)C#N)cc1 [BAG 956]
survival rate of TH+ mDA neurons [1]: significant increase | all three forms of p-Tau (AT8, AT180, Tau-217) [2]: significantly downregulated | LC3+ puncta and LC3+/5G4+ co-localized dots (opto-α-syn-MOs): consistent | Phosphorylation of PDK1 downstream targets PI3K, AKT, S6K, and mTOR [3]: significantly reduced | pathologic α-syn in the Triton X-100 (TX)-insoluble fraction [4]: significantly reduced | pathologic pS129-α-syn immunoreactivity in TH neurons of the ventral midbrain (α-syn PFF injected mice): significantly reduced
